Some test systems named below: HOP-62 NSCLC; HL-60(TB) leukemia; MALME-3M melanoma; SK-MEL-2 melanoma; CAKI-1 renal; A549 NSCLC; HT29 colon; SNB-78 CNS; DMS 114 small cell lung.
Assay in all cases: DTP human tumour cell line panel, 48 h

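Briefly, cells in 96-well plates were exposed to five compound concentrations for 48 h, and endpoints were estimated by linear interpolation. GI50 is the concentration that inhibits growth by half. TGI: total growth inhibition.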

On to `Cc1cc2nc3c4ccccc4n(CCN(C)C)c3nc2cc1C`, for which the GI50 in the test with HOP-62 NSCLC was 1.11 µM; with HL-60(TB) leukemia it was 1.99 µM; in the test on MALME-3M melanoma, 1.41 µM; with SK-MEL-2 melanoma, 1.9 µM; in the test on CAKI-1 renal it was 0.982 µM; in the test with A549 NSCLC, 1.28 µM. In the test with HT29 colon, the GI50 was 0.76 µM. Also, the TGI with HOP-62 NSCLC came out at 7.74 µM; in the test with HL-60(TB) leukemia it was 6.26 µM; in the test with MALME-3M melanoma, 2.74 µM; with SK-MEL-2 melanoma, 4.24 µM; in the test on CAKI-1 renal it was 12.2 µM; with A549 NSCLC, 11.5 µM. The TGI in the test on HT29 colon worked out at 4.26 µM.

For `CCN(CC)c1ccc2nc3c4ccccc4c(=NC(=O)c4ccccc4-c4c5ccc(N(CC)CC)cc5[o+]c5cc(N(CC)CC)ccc45)cc-3oc2c1`, the GI50 is 1.81 µM with HOP-62 NSCLC; 2.96 µM in the test on HL-60(TB) leukemia; 2.92 µM in the test on MALME-3M melanoma; 3.4 µM in the test on SK-MEL-2 melanoma; 4.95 µM with CAKI-1 renal; 1.83 µM in the test with A549 NSCLC. In addition, the GI50 in the test on HT29 colon was 2.73 µM. For the same molecule, the TGI was 4.53 µM with HOP-62 NSCLC; over 100 µM in the test on HL-60(TB) leukemia; 10.2 µM in the test on MALME-3M melanoma; 9.15 µM in the test on SK-MEL-2 melanoma; 18.9 µM in the test with CAKI-1 renal; 5.08 µM in the test with A549 NSCLC. This molecule gave a TGI in the test with HT29 colon of over 32.2 µM.

With `O=[N+]([O-])c1ccc(-c2ccccc2)c([As](=O)(O)O)c1`, the GI50 with HOP-62 NSCLC was 3.11 µM; with HL-60(TB) leukemia, 43.5 µM; in the test on MALME-3M melanoma it was 11.6 µM; with SK-MEL-2 melanoma it was 28.2 µM; in the test on CAKI-1 renal, 13.2 µM; with A549 NSCLC, 27.2 µM. For the same molecule, the GI50 in the test with HT29 colon is 13.5 µM. In addition, the TGI with HOP-62 NSCLC was 18 µM; in the test with HL-60(TB) leukemia it was over 100 µM; with MALME-3M melanoma it was 34.6 µM; in the test with SK-MEL-2 melanoma it was 62.8 µM; with CAKI-1 renal, 98.1 µM; in the test with A549 NSCLC, over 100 µM. Besides, the concentration for total growth inhibition (TGI) in the test with HT29 colon turned out to be 32.2 µM.

Turning to `CC(=O)N[C@@H](Cc1ccc(OP(=O)(O)O)cc1)C(=O)N[C@H]1CCC(=O)N2CCC[C@@H](C(=O)NCc3ccc(O)cc3)N2C1=O`, the GI50 with HOP-62 NSCLC, with HL-60(TB) leukemia, in the test on MALME-3M melanoma, in the test with SK-MEL-2 melanoma, in the test on CAKI-1 renal and in the test with A549 NSCLC was over 25 µM throughout. In the test with HT29 colon, the GI50 was over 25 µM. The TGI in the test on HOP-62 NSCLC, in the test with HL-60(TB) leukemia, in the test with MALME-3M melanoma, with SK-MEL-2 melanoma, in the test with CAKI-1 renal and with A549 NSCLC was over 25 µM throughout. In the test with HT29 colon, the TGI is over 25 µM.

Consider `COc1cc2c3c(c1O)C1(C=CC(=O)C=C1)CC3N(C)CC2` (centres undefined), for which the TGI was 25.7 µM with HOP-62 NSCLC; 10.9 µM in the test on HL-60(TB) leukemia; 24.8 µM with MALME-3M melanoma; 25.9 µM with SK-MEL-2 melanoma; 35.5 µM in the test with CAKI-1 renal; over 100 µM with A549 NSCLC. Also, the TGI in the test with HT29 colon was 23.4 µM.

For `N#C/C(=C\c1ccc(O)cc1O)C(N)=O`, the TGI in the test on HOP-62 NSCLC, with HL-60(TB) leukemia, in the test with MALME-3M melanoma, with SNB-78 CNS, with SK-MEL-2 melanoma and in the test on CAKI-1 renal was over 100 µM each time. In addition, the TGI is over 100 µM in the test with A549 NSCLC and 98.2 µM with HT29 colon.

As to `C/C(=N\Nc1cccc(Cl)n1)c1ccccn1`, the GI50 in the test on HOP-62 NSCLC is 0.456 µM; with HL-60(TB) leukemia, 0.446 µM; with MALME-3M melanoma, 1.78 µM; with SK-MEL-2 melanoma it was 2.72 µM; in the test with CAKI-1 renal it was 0.437 µM; with A549 NSCLC it was 0.932 µM. Moreover, the GI50 in the test on HT29 colon was 0.909 µM. In addition, the TGI is 16.9 µM in the test on HOP-62 NSCLC; 3.94 µM with HL-60(TB) leukemia; 8.71 µM in the test on MALME-3M melanoma; over 100 µM in the test on SK-MEL-2 melanoma; 7.31 µM with CAKI-1 renal; over 100 µM in the test on A549 NSCLC. Besides, the TGI in the test on HT29 colon is over 100 µM.

`CCC[CH2][Sn]1([CH2]CCC)[O]C(=O)c2cc(C)ccc2[O]1`: the GI50 was 0.164 µM with HL-60(TB) leukemia; 0.112 µM in the test with MALME-3M melanoma; 0.368 µM in the test on SNB-78 CNS; 0.303 µM with SK-MEL-2 melanoma; 0.169 µM in the test with CAKI-1 renal; 1.92 µM in the test with A549 NSCLC. Moreover, the GI50 in the test with HT29 colon is 1.24 µM. The TGI in the test with HL-60(TB) leukemia was 0.444 µM; in the test on MALME-3M melanoma, 0.938 µM; in the test on SNB-78 CNS, 1.01 µM; in the test with SK-MEL-2 melanoma, 0.808 µM; with CAKI-1 renal, 0.785 µM; in the test with DMS 114 small cell lung it was 0.771 µM. Besides, the TGI turned out to be 3.32 µM with A549 NSCLC and 2.56 µM in the test with HT29 colon.

As to `COc1ccc(NC(=O)O[C@H]2[C@H](O[C@H]3[C@@H](O)COC(O[C@H]4C[C@H]5[C@@H]6CC=C7C[C@@H](O)CC[C@]7(C)[C@H]6CC[C@]5(C)[C@H]4[C@H](C)C(=O)CCC(C)C)[C@@H]3OC(C)=O)OC[C@@H](O)[C@@H]2O)cc1` (some centres undefined), the GI50 with HOP-62 NSCLC was under 0.01 µM; in the test on HL-60(TB) leukemia, 0.0139 µM; in the test with MALME-3M melanoma, 0.0115 µM; in the test with SK-MEL-2 melanoma, under 0.01 µM; in the test with CAKI-1 renal, under 0.01 µM; in the test on A549 NSCLC it was under 0.01 µM. Moreover, the GI50 in the test on HT29 colon was 0.0242 µM. The total growth inhibition concentration (TGI) in the test on HOP-62 NSCLC is 1.02 µM; in the test with HL-60(TB) leukemia it was 28.2 µM; with MALME-3M melanoma, 3.25 µM; in the test on SK-MEL-2 melanoma, 0.192 µM; in the test on CAKI-1 renal it was 1.01 µM; with A549 NSCLC it was 20.5 µM. Moreover, the TGI in the test on HT29 colon was 15.5 µM.

`ClC1=C(Cl)C(Cl)=C(Cl)C1=Cc1ccc(Cl)cc1`: the GI50 was 0.802 µM in the test with HOP-62 NSCLC; 1.21 µM in the test on HL-60(TB) leukemia; 1.42 µM in the test with MALME-3M melanoma; 2.13 µM in the test on SK-MEL-2 melanoma; 0.429 µM in the test with CAKI-1 renal; 0.918 µM in the test on A549 NSCLC. The GI50 in the test on HT29 colon was 0.27 µM. Moreover, the concentration for total growth inhibition (TGI) in the test with HOP-62 NSCLC was determined as 2.3 µM; in the test with HL-60(TB) leukemia it was 5.86 µM; in the test on MALME-3M melanoma, 3.6 µM; in the test on SK-MEL-2 melanoma, 4.35 µM; in the test on A549 NSCLC it was 2.54 µM; in the test on HT29 colon it was 0.735 µM.

For `CCOC(=O)N1CCC(=O)C[C@@H]1C/C=C/P1(=O)O[C@H](c2ccccc2)C(C)N1C(C)C` (some centres undefined), the TGI with MALME-3M melanoma, in the test with SNB-78 CNS, with SK-MEL-2 melanoma, in the test with CAKI-1 renal, in the test on DMS 114 small cell lung and in the test on A549 NSCLC was over 100 µM throughout. Also, the TGI in the test with HT29 colon is over 100 µM.

What is called GI50 is the concentration that inhibits growth by half. Broadly, the TGI is the concentration giving total growth inhibition. A low value points to greater sensitivity of the cells.

(Values after PubChem BioAssay (NCI).)
